{"source": "patent US6846637B1", "about": "“Fas peptides and antibodies for modulating apoptosis” (IMED AB, priority 1998, dated 2005)", "key": {"[1]": {"system": "immunoglobulin preparations derived from pooled human serum (Gammagard)", "assay": "ELISA reactivity of immunoglobulin preparations (Gammagard) to Fas peptides", "type": "binding", "conditions": "O.D. 490 nm classes", "procedure": "Similar experiments were performed with commercially available immunoglobulin preparations derived from pooled human serum enriched by immunosorbence for immunoglobulin fractions (Gammagard-Baxter, Hyland, Glendale, Calif. USA)."}, "[2]": {"target": "Fas peptide Fp11 (Glu100-Cys119) (human)", "sequence (peptide, as listed by the source)": "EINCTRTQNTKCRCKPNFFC", "assay": "peptide ELISA; legend: +++ > 1.0 O.D."}, "[3]": {"target": "Fas peptide Fp5 (Gly40-Val59) (human)", "assay": "peptide ELISA; legend: + = <0.5 O.D. 490 nm"}, "[4]": {"target": "Fas peptide Fp17 (Trp160-Val179) (human)", "assay": "peptide ELISA; legend: + = <0.5 O.D. 490 nm"}, "[5]": {"system": "antibodies in human sera of healthy blood donors", "assay": "ELISA reactivity of human serum to Fas peptides", "type": "binding", "conditions": "for reactivity with human sera: sera of 30 healthy blood donors, in words; for Reactivity to Fas peptides in ELISA, Human serum: O.D. 490 nm classes", "excerpt": "The derived amino acid sequence (a.a.1-179) of the Fas protein (Itoh et al., 1991) was used for simultaneous multiple solid-phase peptide synthesis (Houghten et al, 1985) of 20 amino acid long peptides (with a 10-residue overlap)."}, "[6]": {"system": "PHA-stimulated T cell blasts", "assay": "Proliferation of PHA-stimulated T-cell blasts (Alamar Blue)", "type": "cell-based, human", "conditions": "anti-CD3 alone", "procedure": "PBMC were stimulated with phytohemagglutinin (PHA) ([…]) (Pharmacia Biotech, Sweden) for 48 hours. […] After 48 hours incubation, the proliferation was assessed by Alamar Blue Assay (Biosource International, USA.) and the results were expressed as percent difference in reduction of (fluorometric/colorometric) REDOX indicator between antibody coated and control (without antibodies) wells according to manufacturer's instructions (AMS Biotechnology AB, Sweden)."}, "[7]": {"system": "Jurkat leukemia T cells", "assay": "TUNEL assay of apoptosis of Jurkat cells on immobilized anti-Fas peptide antibodies", "type": "cell-based, human", "conditions": "immobilized antibody, 48 h, TUNEL/FACS; control well 18%", "procedure": "The antibody-concentrations were anti-Fp5 (10 μg/ml), anti-Fp11 (10 μg/ml) and anti-Fpl7 (40 μg/ml). Cells were collected after 48 h incubation, and the fragmented DNA of apoptotic cells was assessed by Apoptosis Detection System, Fluorescein (Promega, Madison, Wis.) based on TdT-mediated dUTP Nick-End Labeling (TUNEL) assay and FACS analysis (CellQuest software, Becton Dickinson) according to manufacturer's instructions. For apoptosis inhibition experiments, Jurkat cell culture medium was supplemented with 200 ng/ml of recombinant Fas-Fc chimera (R&D Systems Europe Ltd, Abingdon, UK). Inhibition of CH-11-mediated apoptosis was performed as described in Fadeel et al., 1997. Data are presented as the mean value of four independent experiments, and the standard error of mean is indicated by the error bars.\nAbility to mediate apoptosis and inhibition of proliferation was determined using antibodies immobilized to plastic surface."}}}
{"substance": "HFSSKCRRCRLCDEGHGLEV [Fp9]", "values": [{"measurement": "Reactivity to Fas peptides in ELISA, Immunoglobulin preparations (Gammagard)", "setting": "[1]", "result": "++ (++ = <1.0 O.D.)"}]}
{"substance": "QEGKEYTDKAHFSSKCRRCR [Fp8]", "values": [{"measurement": "Reactivity to Fas peptides in ELISA, Immunoglobulin preparations (Gammagard)", "setting": "[1]", "result": "+++ (+++ > 1.0 O.D.)"}]}
{"substance": "Immunoglobulin preparations (Gammagard) (antibody)", "values": [{"measurement": "O.D. 490 nm", "setting": "[2]", "result": "> 1", "unit": "od"}, {"measurement": "O.D. 490 nm", "setting": "[3]", "result": "< 0.5", "unit": "od"}, {"measurement": "O.D. 490 nm", "setting": "[4]", "result": "< 0.5", "unit": "od"}]}
{"substance": "KEEGSRSNLGWLCLLLLPIP [Fp16]", "values": [{"measurement": "Reactivity to Fas peptides in ELISA, Immunoglobulin preparations (Gammagard)", "setting": "[1]", "result": "+ (+ = <0.5 O.D. 490 nm)"}, {"measurement": "reactivity with human sera", "setting": "[5]", "result": "low or no reactivity"}]}
{"substance": "WLCLLLLPIPLIVWVKRKEV [Fp17]", "values": [{"measurement": "Reactivity to Fas peptides in ELISA, Immunoglobulin preparations (Gammagard)", "setting": "[1]", "result": "+ (+ = <0.5 O.D. 490 nm)"}, {"measurement": "serum titers against peptide", "setting": "[5]; 30 healthy donors, comparison of Fp5, Fp11, Fp17", "result": "lowest mean titers"}, {"measurement": "Reactivity to Fas peptides in ELISA, Human serum", "setting": "[5]", "result": "+++ (+++ > 1.0 O.D.)"}, {"measurement": "reactivity with human sera", "setting": "[5]", "result": "reactive"}]}
{"substance": "KCRCKPNFFCNSTVCEHCDP [Fp12]", "values": [{"measurement": "Reactivity to Fas peptides in ELISA, Immunoglobulin preparations (Gammagard)", "setting": "[1]", "result": "++ (++ = <1.0 O.D.)"}, {"measurement": "Reactivity to Fas peptides in ELISA, Human serum", "setting": "[5]", "result": "++ (++ = <1.0 O.D.)"}]}
{"substance": "anti-CD3: purified anti-CD3 monoclonal antibody (OKT-3, 10 μg/ml)", "values": [{"measurement": "reduction of proliferation", "setting": "[6]", "result": 12, "unit": "%"}]}
{"substance": "LIVWVKRKEVQKTCRKHRKE [Fp18]", "values": [{"measurement": "Reactivity to Fas peptides in ELISA, Immunoglobulin preparations (Gammagard)", "setting": "[1]", "result": "+++ (+++ > 1.0 O.D.)"}]}
{"substance": "GQFCHKPCPPGERKARDCTV [Fp5]", "values": [{"measurement": "apoptosis induced in Jurkat leukemia cells", "setting": "[7]", "result": 25, "unit": "%"}, {"measurement": "Reactivity to Fas peptides in ELISA, Immunoglobulin preparations (Gammagard)", "setting": "[1]", "result": "+ (+ = <0.5 O.D. 490 nm)"}, {"measurement": "Reactivity to Fas peptides in ELISA, Human serum", "setting": "[5]", "result": "++ (++ = <1.0 O.D.)"}, {"measurement": "reactivity with human sera", "setting": "[5]", "result": "reactive"}]}
